In patent US20110104713A1, “PRODUCTS AND PROCESSES FOR MODULATING PEPTIDE-PEPTIDE BINDING DOMAIN INTERACTIONS” (priority 2002, published 2011):
“Also recorded” adds a separate entry of the source.

Legend:
[1] = tested on: GST-PTIP tandem BRCT domains interaction with 53BP1; test: GST-PTIP tandem BRCT pull-down of 53BP1 from irradiated U2OS cells; type: binding, human; settings: 25 mM caffeine prior to irradiation, U2OS
Procedure: (§1) U2OS cells were either treated with 10 Gy of ionizing radiation or mock irradiated and allowed to recover for 30-120 minutes. Cells were subsequently lysed in 50 mM Tris/HCl (pH7.6), 150 mM NaCl, 1.0% NP-40, 5 mM EDTA, 2 mM DTT, 8 μg/mL pepstatin, 8 μg/mL aprotinin, 8 μg/mL leupeptin, 2 mM Na3VO4, 10 mM NaF, 1 μM microcystin. The lysates (0.5-2 mg) were incubated with 20 μL glutathione beads containing 10-20 μg of GST-PTIP BRCT domains (residues 550-757), GST-BRCA1 BRCT domains (residues 1634-1863), or GST for 120 minutes at 4° C. Beads were washed three times with lysis buffer. Precipitated proteins were eluted in sample buffer and detected by blotting with anti-ATM/ATR substrate (pSer/pThr)Gln antibody (CELL SIGNALING TECHNOLOGY, Inc Beverly, Mass.), polyclonal anti-53BP1 (ONCOGENE […] PRODUCTS, San Diego, Calif. 92121), or monoclonal anti-HA (COVANCE Inc, Princeton, N.J.). For peptide competition experiments, GST-PTIP BRCT domains or GST-BRCA1 BRCT domains were immobilized on glutathionine beads and preincubated with 350 μM of BRCTtide-optimal, 7pT, 7T, pSQ-library, SQ-library, or pTP-library for 1 hour at 4° C. and washed three times with lysis buffer.

[2] = target: T1, GST-BRCA1 tandem BRCT domains interaction with phosphoproteins (Homo sapiens, UniProt P38398); test: GST-BRCA1 tandem BRCT pull-down of DNA damage-induced phosphoproteins from irradiated U2OS cells; type: binding
T1 construct: 15 μM GST-BRCA1 BRCT domains (residues 1634-1863); made in house; host or cells: E. coli DH5a
Procedure: as §1

[3] = target: T2, GST-PTIP BRCT domains (residues 550-757) (Homo sapiens, UniProt Q6ZW49); test: Isothermal titration calorimetry of peptides with PTIP tandem BRCT domains; type: binding; settings: PTIP; N.D.B = no detectable binding by ITC, tandem BRCT domain concentration of at least 150 μM
T2 construct: 15 μM GST-PTIP BRCT domains (residues 550-757); made in house; host or cells: E. coli DH5a
Excerpt: (§2) For deletion mapping of the PTIP and BRCA1 BRCT phospho-binding region and for expression of MDC 1, 53BP1 and Rad9 (FIG. 17-18), fragments were generated by PCR for in vitro transcription/translation and cloned into a pcDNA3.1 expression vector (Invitrogen, San Diego, Calif.). For production of recombinant GST-PTIP BRCT domains and GSTBRCA1 BRCT domains, residues 550-757 of PTIP and residues 1634-1863 of BRCA1 were ligated into the EcoRI and NotI sites of pGEX-4T1 (Pharmacia, Peapack, N.J.) and subsequently transformed into DH5a E. Coli. Protein induction occurred at 37° C. for 4 hours or at 25° C. for 16 hours in the presence of 0.4 mM IPTG. For peptide filter blot analysis and measurements of peptide binding affinity by ITC, GSTPTIP BRCT domains (residues 550-757) and GST-BRCA1 BRCT domains (residues 1634-1863) were isolated from bacterial lysates using glutathione agarose, eluted with 40 mM glutathione, and dialyzed into 50 mM Tris/HCl (pH 8.1), 300 mM NaCl. The GFP-PTIP constructs FL (residues 1-757), !BRCT (residues 1-550), or (BRCT)2 (residues 550-757) were cloned into the EcoRI and SalI sites of the pEGFP-C2 (BD Biosciences Clontech Franklin Lakes, N.J.) expression vector.
(§3) Peptides were synthesized by solid phase technique with three C-terminal lysines to enhance solubility. The peptides were then purified by reverse phase HPLC following deprotection and confirmed by MALDI-TOF mass spectrometry. Calorimetry measurements were performed using a VP-ITC microcalorimeter (MicroCal Inc., Studio City, Calif.). Experiments involved serial 10 μL injections of peptide solutions (20 μM-150 μM) into a sample cell containing 15 μM GST-PTIP BRCT domains (residues 550-757) or 15 μM GST-BRCA1 BRCT domains (residues 1634-1863) in 50 mM Tris/HCl (pH 8.1), 300 mM NaCl. Twenty injections were performed with 240 second intervals between injections and a reference power of 25 μCal/s. Binding isotherms were plotted and analyzed using ORIGIN Software (MicroCal Inc. Studio City, Calif.).

[4] = target: T3, GST-BRCA1 BRCT domains (residues 1634-1863) (Homo sapiens, UniProt P38398); test: Isothermal titration calorimetry of peptides with BRCA1 tandem BRCT domains; type: binding; settings: BRCA1; N.D.B = no detectable binding by ITC, tandem BRCT domain concentration of at least 150 μM
T3 construct: 15 μM GST-BRCA1 BRCT domains (residues 1634-1863); made in house; host or cells: E. coli DH5a
Excerpt: as §2, §3

[5] = target: T4, GST-PTIP tandem BRCT domains interaction with 53BP1 (Homo sapiens, UniProt Q6ZW49); test: GST-PTIP tandem BRCT pull-down of 53BP1 from irradiated U2OS cells; type: binding; settings: 350 μM peptide or library, 1 hour at 4° C., IR treated U2OS
T4 construct: 10-20 μg of GST-PTIP BRCT domains (residues 550-757); made in house; host or cells: E. coli DH5a (GST-PTIP BRCT); 53BP1 endogenous from U2OS lysate
Procedure: as §1

T4 sequence (Q6ZW49 862-1069): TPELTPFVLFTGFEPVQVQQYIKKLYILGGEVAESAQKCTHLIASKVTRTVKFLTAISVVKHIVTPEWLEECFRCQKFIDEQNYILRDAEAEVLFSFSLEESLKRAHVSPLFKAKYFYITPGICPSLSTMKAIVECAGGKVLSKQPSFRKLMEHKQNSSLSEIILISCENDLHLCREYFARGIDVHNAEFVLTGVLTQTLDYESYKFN
T1 sequence (P38398 1634-1863): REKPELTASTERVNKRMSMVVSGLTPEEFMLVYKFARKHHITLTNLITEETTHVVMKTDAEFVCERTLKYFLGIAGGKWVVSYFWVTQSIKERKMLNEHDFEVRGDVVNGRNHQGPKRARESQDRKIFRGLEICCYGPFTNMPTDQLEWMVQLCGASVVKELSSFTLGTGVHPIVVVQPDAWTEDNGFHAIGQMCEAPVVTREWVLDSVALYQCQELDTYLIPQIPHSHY
T2 sequence (Q6ZW49 862-1069): as the sequence (Q6ZW49 862-1069) above
T3 sequence (P38398 1634-1863): as the sequence (P38398 1634-1863) above

| Kd (N.D.B.) [3] | Kd (N.D.B.) [4] | effect of bead pre-incubation with peptide/library on PTIP BRCT interaction with 53BP1 [5] | effect of bead pre-incubation with peptide/library on PTIP BRCT interaction with 53BP1 ([5]; listed as non-phosphorylated counterpart) | Compound | effect of caffeine treatment of cells on PTIP BRCT interaction with 53BP1 [1] | effect of caffeine pre-treatment of cells on BRCA1 BRCT binding to (pSer or pThr)-Gln-containing proteins ([2]; caffeine prior to γ-irradiation, U2OS) | effect of pre-incubation with peptide/library on BRCA1 BRCT binding to (pSer or pThr)-Gln-containing proteins ([2]; 350 μM peptide or library, U2OS lysates after 10 Gy) |
| --- | --- | --- | --- | --- | --- | --- | --- |
|  |  |  |  | Cn1c(=O)c2c(ncn2C)n(C)c1=O [caffeine, reference compound] | disrupted the interaction; also recorded: eliminated | largely eliminated |  |
| N.D.B. | N.D.B. | not | not eliminated | GAAYDITQVFPFAKKK [BRCTtide-7T] |  |  | not |
